Data from patent EP2574333B1, “N-acetylcysteine effervescent tablet and its therapeutical applications” (Friulchem SpA, priority 2011, dated 2013).
Read-outs that look alike come from different tables or passages of the source.

Experiments:
[1] = mouse, cited from earlier work
[2] = human, intravenous route; cited from earlier work
[3] = Chronic toxicity in rats (NOEL); format: in vivo; settings: oral route, 60 kg
[4] = chronic toxicity in rats, for 12 months; cited from earlier work
[5] = 11,195 cases of suspected acetaminophen overdose reviewed; cited from earlier work
[6] = cited from earlier work
[7] = rats, intraperitoneal route; cited from earlier work
[8] = in vivo, iv
[9] = tested on: Glutathione (GSH); settings: cited from earlier work

CC(=O)N[C@@H](CS)C(=O)O [NAC, N-acetylcysteine]
Toxic Dose Low (TDLO) ([1]; intraperitoneal route): 408 to 450 mg/kg
Toxic Dose Low (TDLO) ([1]; oral route): 300 mg/kg
Toxic Dose Low (TDLO) [2]: 150 to 200 mg/kg
1200 mg dose (20 mg/kg) referred to NOEL in rats [3]: 50 times less
no observed effect level (NOEL) dose [4]: about 1000 mg/kg/day
effectiveness of 72-hour oral regimen [5]: as effective as the 24-hour regimen
plasma half-life ([6]; after oral administration): 6.3 h
time at which maximum plasma concentration is reached ([6]; after oral administration): 2 to 3 h
NAC in plasma or bronchoalveolar lavage fluid ([6]; following oral administration for 4-14 days): cannot be detected
bioavailability ([6]; oral, unchanged molecule): about 10%
Toxic Dose Low (TDLO) [7]: 150 to 200 mg/kg
1200 mg dose (20 mg/kg) referred to TDLO in human [8]: about 10 times less
cysteine and GSH levels in plasma and lung ([9]; NAC 600 mg once daily): increased transiently
plasma concentration of Glutathione (GSH) ([9]; patients with COPD, 600 mg once daily): unchanged
plasma GSH levels ([9]; patients with COPD, 600 mg three times daily): increased
